Test results as given in publication PMC5943271, “Biosynthetic pathway for furanosteroid demethoxyviridin and identification of an unusual pregnane side-chain cleavage” (Nature Communications, 2018).
Like-named read-outs stand apart in the source and are kept apart here.

What was measured:
PI3K gamma kinase = PI3K gamma kinase (Homo sapiens, UniProt P48736); assay: In vitro PI3K gamma kinase assay (PI3-Kinase (human) HTRF Assay kit); format: biochemical; conditions: for IC50: PI3K gamma, 10 μM PIP2, 10 μM ATP, room temperature 1 h, HTRF, two replicates, read-out: IC50 value, PI3K inhibitory activity
Experimental: The in vitro PI3K gamma kinase assay was carried out using a PI3-Kinase (human) HTRF^TM Assay kit (Millipore, USA) according to the manufacturer’s protocol. Briefly, the PI3K gamma kinase was incubated with 10 μM sample (tested compounds) in the reaction buffer containing 10 μM PIP2 in the wells of a 384-well opaque black plate (PerkinElmer, USA) at room temperature. Kinase reactions were initiated by adding 10 μM ATP and incubating the plate at room temperature for 1 h. The reactions were quenched by adding 5 μL of Stop Solution (containing EDTA and biotin-PIP3), and then the detection buffer (containing the Europium-labeled anti-GST antibody, the GST-tagged receptor of the phosphoinositide (GRP1) PH domain, and streptavidin–APC) was added to each well. Following 2 h incubation in the dark, the HTRF signal was measured with a 2104 EnVision® Multilabel Reader (PerkinElmer, USA) in the time-resolved fluorescence mode, set for excitation at 320 nm and dual emission detection at 615 nm (Eu) and 665 nm (APC). The emission ratio (ER) of 665 nm emission signal to 615 nm emission signal was then calculated and the inhibition ratio of a certain sample on PI3K was calculated according to the following formula: PI3K inhibition (%) = (ERsample − ER0%)/(ER100% − ER0%) × 100%. ER0% means 0% inhibition, which was calculated from the reaction of PI3K, PIP2, and ATP in the absence of sample.

[1] = parameters: method as in PMID 19523825; conditions: cited from earlier work
MCF-7 cells = assay: Cytotoxicity assay (CCK-8) against breast cancer cell line MCF-7; format: cell-based, human; conditions: MCF-7, 40 μM, 48 h
Experimental: (§1) The human breast cancer MCF-7 cell line (ATCC HTB-22) was used in the cytotoxicity assay. The cell line was cultured in DMEM (Gibco, Life Technologies, USA), supplemented with 10% fetal bovine serum (Gibco, Life Technologies, USA), in a 5% CO2 atmosphere at 37 °C. […] After a treatment with 40 μM of each compound (Dissolved with DMSO) for 48 h, the CCK-8 solution (10 μL) was added to each well and incubated for 2 h at 37 °C. The absorbance (Ab) of samples was detected at 450 nm using a microtiter plate reader (TriStar LB941, Berthold Technologies, Germany).

[2] = as above; format: cell-based, human; conditions: human, MCF-7 breast cancer cells (ATCC HTB-22), MCF-7, 48 h
Experimental: as §1

PI3K gamma kinase, sequence (P48736 whole entry): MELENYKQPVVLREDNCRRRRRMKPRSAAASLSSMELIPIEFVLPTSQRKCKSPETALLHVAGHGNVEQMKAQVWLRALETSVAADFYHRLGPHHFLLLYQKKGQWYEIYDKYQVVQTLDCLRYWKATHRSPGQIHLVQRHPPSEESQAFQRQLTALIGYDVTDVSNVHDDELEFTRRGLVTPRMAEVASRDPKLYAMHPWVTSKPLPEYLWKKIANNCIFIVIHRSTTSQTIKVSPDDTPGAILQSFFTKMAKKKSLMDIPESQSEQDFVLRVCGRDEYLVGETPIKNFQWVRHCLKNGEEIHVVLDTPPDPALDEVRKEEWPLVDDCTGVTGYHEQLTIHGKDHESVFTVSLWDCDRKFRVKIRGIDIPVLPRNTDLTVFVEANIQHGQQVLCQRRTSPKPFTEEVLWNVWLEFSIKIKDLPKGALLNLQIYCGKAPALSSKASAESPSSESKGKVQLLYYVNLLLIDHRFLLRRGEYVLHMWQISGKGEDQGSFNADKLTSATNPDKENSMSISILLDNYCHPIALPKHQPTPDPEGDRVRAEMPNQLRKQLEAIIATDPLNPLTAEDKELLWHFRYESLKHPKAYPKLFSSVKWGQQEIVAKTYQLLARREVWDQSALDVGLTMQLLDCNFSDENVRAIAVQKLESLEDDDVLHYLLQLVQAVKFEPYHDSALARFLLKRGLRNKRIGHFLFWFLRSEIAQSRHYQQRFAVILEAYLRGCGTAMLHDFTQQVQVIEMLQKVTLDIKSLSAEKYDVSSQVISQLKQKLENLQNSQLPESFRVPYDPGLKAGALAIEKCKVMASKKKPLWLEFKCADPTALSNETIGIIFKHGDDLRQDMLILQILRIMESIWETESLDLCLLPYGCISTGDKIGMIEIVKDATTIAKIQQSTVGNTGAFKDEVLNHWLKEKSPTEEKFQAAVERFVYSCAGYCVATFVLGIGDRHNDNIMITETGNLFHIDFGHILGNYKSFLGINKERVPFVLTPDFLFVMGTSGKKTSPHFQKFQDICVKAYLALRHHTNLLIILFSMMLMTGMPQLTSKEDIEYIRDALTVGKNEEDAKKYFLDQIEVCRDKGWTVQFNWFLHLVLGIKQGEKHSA

Row | Structure (SMILES) | IC50 (PI3K gamma kinase) [µM] | melting point [°C] | other results
1 | C[C@]12CCC(=O)c3coc(c31)C(=O)c1c2ccc2c1CCC2=O [Compound 3, dehydroxydemethoxyviridin] | 0.167 |  | 
2 | C[C@@]12c3ccc4c(c3C(=O)c3occ(c31)C(=O)C[C@H]2O)CCC4=O [Compound 1, demethoxyviridin] | 0.0066 |  | stability in PBS and culture media (in words) [1]: instability; cytotoxicity against MCF-7 (in words) (MCF-7 cells): moderate cytotoxicity
3 | C[C@@]12c3ccc4c(c3C(=O)c3occ(c31)[C@@H](O)C[C@H]2O)CCC4=O [Compound 2, demethoxyviridiol] | 1.07 |  | IC50 at 48 h ([2]; three replicates, read-out: IC50 value, cytotoxicity against MCF-7 (Supplementary Figure 9b)): 37.3 µM
4 | CC(=O)O[C@H]1CC[C@H]2C3=C(CC[C@]12C)[C@@]1(C)CC[C@H](O)c2coc(c21)C3=O [Compound 9, (3S,6bR,9S,9aS,11bR)-3-hydroxy-9a,11b-dimethyl-6-oxo-1,2,3,6,6b,7,8,9,9a,10,11,11b-dodecahydrocyclopenta[7,8]phenanthro[10,1-bc]furan-9-yl acetate] |  |  | inhibitory effect on PI3K (in words) (PI3K gamma kinase; 10 μM sample, Fig. 8a): abolishes the activity
5 | C[C@]12CC[C@H](O)c3coc(c31)C(=O)C1=C2C=C[C@]2(C)C(=O)CC[C@@H]12 |  | 236.4 to 238.7 | 
6 | CC(=O)[C@H]1CC[C@H]2C3=C(CC[C@]12C)[C@@]1(C)CCC(=O)c2coc(c21)C3=O [Compound 10, virone] | 2.25 |  | 
7 | C[C@]12CCC3=C(C(=O)c4occ5c4[C@]3(C)CC[C@@H]5O)[C@@H]1CC[C@@H]2O |  | 187.1 to 189.6 | 
8 | C[C@]12CCC3=C(C(=O)c4occ5c4[C@]3(C)CCC5=O)[C@@H]1CC[C@@H]2O [Compound 7, (6bR,9S,9aS,11bR)-9-hydroxy-9a,11b-dimethyl-1,2,6b,7,8,9,9a,10,11,11b-decahydrocyclopenta[7,8]phenanthro[10,1-bc]furan-3,6-dione] | 0.0427 |  | IC50 at 48 h ([2]; read-out: IC50 value, cytotoxicity against MCF-7): 15 µM
9 | CC(=O)[C@H]1CC[C@H]2C3=C(CC[C@]12C)[C@@]1(C)CC[C@H](O)C2=C1[C@@](O)(OC2)C3=O |  | 218.2 to 221.7 | 
